Holding throughout (format): biochemical
In experiment [1] the target is T1, mitochondrial uncoupling protein 1 (UCP1) (Mus musculus, UniProt P12242).
T1 construct: recombinant mouse UCP1 from E. coli inclusion bodies, reconstituted in lipid bilayers
T1 sequence (P12242 1-307): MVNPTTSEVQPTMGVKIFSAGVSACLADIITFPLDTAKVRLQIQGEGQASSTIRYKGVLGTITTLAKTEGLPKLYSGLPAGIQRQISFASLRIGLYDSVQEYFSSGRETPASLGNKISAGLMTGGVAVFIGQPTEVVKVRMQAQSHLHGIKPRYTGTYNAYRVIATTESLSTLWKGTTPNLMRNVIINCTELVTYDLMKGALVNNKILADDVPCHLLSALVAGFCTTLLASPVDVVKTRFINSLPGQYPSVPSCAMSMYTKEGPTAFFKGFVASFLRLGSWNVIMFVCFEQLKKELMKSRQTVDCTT
The experiment can be described thus: planar lipid bilayer conductance, competition of […] ATP with […] genipin. An excerpt: The first bar is the inhibition after the addition of ATP

The target of experiment [2] is T2, mitochondrial uncoupling protein 3 (UCP3) (Mus musculus, UniProt P56501).
T2 construct: recombinant mouse UCP3 from E. coli inclusion bodies, reconstituted in lipid bilayers
T2 sequence (P56501 1-308): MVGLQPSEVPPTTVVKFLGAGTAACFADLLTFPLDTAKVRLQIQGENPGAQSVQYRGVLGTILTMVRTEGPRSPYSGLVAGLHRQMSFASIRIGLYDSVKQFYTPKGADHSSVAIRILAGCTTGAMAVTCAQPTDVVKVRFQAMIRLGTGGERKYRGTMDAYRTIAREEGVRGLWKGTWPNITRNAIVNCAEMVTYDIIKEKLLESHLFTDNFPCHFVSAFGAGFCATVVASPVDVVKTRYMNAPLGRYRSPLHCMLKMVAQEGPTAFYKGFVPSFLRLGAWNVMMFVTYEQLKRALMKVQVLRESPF
Kind of experiment: planar lipid bilayer conductance with reconstituted UCP3.

Experiment [3] concerns the target T3, mitochondrial uncoupling protein 2 (UCP2) (Mus musculus, UniProt P70406).
T3 construct: recombinant mouse UCP2 from E. coli inclusion bodies, reconstituted in lipid bilayers
T3 sequence (P70406 1-309): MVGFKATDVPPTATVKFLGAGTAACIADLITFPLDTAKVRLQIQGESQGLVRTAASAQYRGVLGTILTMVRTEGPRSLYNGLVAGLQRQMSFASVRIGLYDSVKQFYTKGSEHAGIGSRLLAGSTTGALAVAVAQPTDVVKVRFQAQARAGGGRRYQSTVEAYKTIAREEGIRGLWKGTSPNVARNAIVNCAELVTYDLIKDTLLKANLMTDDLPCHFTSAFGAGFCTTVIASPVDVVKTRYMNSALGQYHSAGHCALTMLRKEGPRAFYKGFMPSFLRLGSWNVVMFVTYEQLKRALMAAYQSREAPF
The experiment can be described thus: planar lipid bilayer conductance with reconstituted UCP2.

For experiment [4], the target named is T4, mitochondrial complex III (CIII) (Bos taurus, UniProt P00157).
T4 construct: gene MT-CYB; complex III isolated from bovine heart
The experiment can be described thus: cytochrome c reduction by isolated complex III, […] genipin.

Experiment [5] has as its target T1, mitochondrial uncoupling protein 1 (UCP1). Kind of experiment: planar lipid bilayer conductance with reconstituted UCP1; LC-MS/MS of covalent adducts; arginine mutants; competition with ATP.
Experiment [6] has the same target. The experiment can be described thus: planar lipid bilayer conductance with reconstituted UCP1.

Regarding `Nc1ncnc2c1ncn2[C@@H]1O[C@H](COP(=O)(O)OP(=O)(O)OP(=O)(O)O)[C@@H](O)[C@H]1O` [ATP], the “planar lipid bilayer conductance, competition of 3 mM ATP with 50 μM genipin” value in experiment [1] was “Competitive inhibition of UCP1 with genipin (GNP) and ATP. The first bar is the inhibition after the addition of ATP”.
By IC50 is commonly meant the midpoint of a concentration-inhibition curve. Regarding `COC(=O)C1=CO[C@@H](O)[C@@H]2C(CO)=CC[C@H]12` [GNP, genipin], the IC50 in experiment [2] was 41 ± 12 µM; in experiment [3], 94 ± 24 µM; in experiment [5] it was 133 ± 12 µM. The molecule also yielded an activity at 50 µM in experiment [4] of 63 ± 7%.
What is called EC50 is the concentration giving half of the maximal effect. A higher EC50 goes with weaker potency. Molecule `COC(=O)C1=CO[C@@H](O[C@@H]2O[C@H](CO)[C@@H](O)[C@H](O)[C@H]2O)[C@@H]2C(CO)=CC[C@H]12` [geniposide] came in with an EC50 in experiment [6] of 693 ± 90 µM.
